Data taken from patent US7405303B2, “Substituted quinoline compounds for use as selective estrogen receptor modulator” (SmithKline Beecham Corporation, priority 2004, dated 2008).
Where two headings read alike, the source gives them in different places.

What was measured:
[1] = target: T1, GST-hERα (ligand binding domain) (Homo sapiens, UniProt P03372); test: SPA competition binding assay, ERα; conditions: for Ki: read-out: Avg. ER α pKi (converted); for Avg. ER α pKi: SPA competition binding vs 1 nM [3H]estradiol, apparent Ki, n = 2
T1 construct: made in house; host or cells: E. coli BL21 (DE3)pLYS S
T1 sequence (P03372 311-547 limits assumed): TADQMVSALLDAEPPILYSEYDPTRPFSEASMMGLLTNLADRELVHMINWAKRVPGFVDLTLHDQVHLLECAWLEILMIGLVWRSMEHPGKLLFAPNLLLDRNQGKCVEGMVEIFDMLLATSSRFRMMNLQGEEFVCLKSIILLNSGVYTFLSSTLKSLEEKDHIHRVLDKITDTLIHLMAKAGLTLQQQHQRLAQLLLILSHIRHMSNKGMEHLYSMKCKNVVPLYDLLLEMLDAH
Protocol: (§1) The ligand binding domain of both ERα and ERβ were sub-cloned into pGEX-2T vector which had been modified to contain KpnI and BamHI restriction sites in the multiple cloning region. GST-hERα and GST-hERβ proteins were made by transforming BL21 (DE3)pLYS S competent cells with the appropriate expression plasmid. […] The cells were collected by centrifugation and resuspended in lysis buffer (50 mM Tris pH 7.9; 250 mM KCl; 1% Triton X-100; 10 mM DTT; 1 mM PMSF). The lysate was then placed on dry ice until completely frozen The frozen lysate was thawed and centrifuged 20 min at 4° C. at 80K rpm in a TLA 100.2 rotor in a Beckman TL-100 ultracentrifuge. The supernatant was retained and glycerol was added to a final concentration of 10%. The protein content of the supernatant was quantitated using the BioRad Protein Assay Reagent. The protein was then stored at −80° C. until used in the binding assay.
(§2) Polylysine coated Yttrium Silicate SPA beads (Amersham #RPNQ 0010) are resuspended in assay buffer [10 mM potassium phosphate buffer pH 7.0 containing 2 mM EDTA, 50 mM NaCl, 1 mM DTT, 2 mM CHAPS, 10% glycerol] to a concentration of 1 g/60 ml. 30 ul (0.5 mg) of the SPA beads are then added to each well of a Packard OptiPlate (Packard 6005190, Packard Instruments, Meriden, Conn.). […] [2,4,6,7,16,17-3H(N)]-Estradiol is added as a 30 ul aliquot to give a final assay concentration of 1 nM. […] The plates are shaken vigorously for two hours then counted on a Packard TopCount using the protocol for counting tritium yttrium silicate SPA beads. Data analysis was done by standard methods. % Bound was calculated for each concentration of each test compound using the equation % Bound=100*((Test−NS)/(T−NS)). % Bound was plotted vs concentration and curve fitting was accomplished using non-linear regression.

[2] = target: T2, GST-hERβ (ligand binding domain) (Homo sapiens, UniProt Q92731); test: SPA competition binding assay, ERβ; conditions: for Avg. ER β pKi: SPA competition binding vs 1 nM [3H]estradiol, apparent Ki, n = 2
T2 construct: made in house; host or cells: E. coli BL21 (DE3)pLYS S
T2 sequence (Q92731 264-498 limits assumed): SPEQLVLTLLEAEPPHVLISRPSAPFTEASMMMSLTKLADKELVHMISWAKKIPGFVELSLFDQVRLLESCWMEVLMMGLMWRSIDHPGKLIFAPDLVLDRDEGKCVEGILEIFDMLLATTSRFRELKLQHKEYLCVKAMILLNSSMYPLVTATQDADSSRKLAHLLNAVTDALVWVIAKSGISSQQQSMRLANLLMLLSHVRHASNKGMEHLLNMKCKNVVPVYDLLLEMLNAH
Protocol: as §1, with “The lysate was then placed on dry ice until completely frozen The frozen lysate was thawed and centrifuged 20 min at 4° C. at 80K rpm in a TLA 100.2 rotor in a Beckman TL-100 ultracentrifuge.” left out
as §2, with “ml.” for “ml. 30 ul (0.5 mg) of the SPA beads are then added to each well of a Packard OptiPlate (Packard 6005190, Packard Instruments, Meriden, Conn.).”

Compound	Ki [1]	Ki [2]	Avg. ER α pKi [1]	Avg. ER β pKi [2]	Ki ([2]; read-out: Avg. ER β pKi (converted))
CCc1nc2cc(O)ccc2c(Oc2ccc(/C=C/C(N)=O)cc2)c1-c1ccccc1 [Example 2, 4-[(7-Hydroxy-2-ethyl-3-phenyl-4-quinolinyl)oxyphenyl]-2-propenoamide]	14.8 nM	28.2 nM	–	–	–
4-[(7-Hydroxy-2-ethyl-3-phenyl-4-quinolinyl)oxyphenyl]-2-propenonitrile [Example 6]	–	–	7.59	7.50	–
4-[(7-Hydroxy-2-ethyl-3-(3-trifluoromethylphenyl]-4-quinolinyl)oxyphenyl]-2-propeno-N-isopropylamide [Example 7]	–	–	7.51	7.26	–
4-[(7-Hydroxy-2-ethyl-3-phenyl-4-quinolinyl)oxyphenyl]-2-propeno-N-piperidineamide [Example 5]	–	–	7.55	7.64	–
4-[(7-Hydroxy-2-phenyl-3-phenyl-4-quinolinyl)oxyphenyl]-2-propenoic acid [Example 9]	–	–	5.53	6.17	–
4-[(7-Hydroxy-2-ethyl-3-(3-trifluoromethylphenyl)-4-quinolinyl)oxyphenyl]-2-propenoic acid [Example 8]	–	–	7.05	6.57	–
4-[(7-Hydroxy-2-ethyl-3-phenyl-4-quinolinyl)oxyphenyl]-2-propeno-N,N-dimethylamide [Example 4]	–	–	7.95	7.74	–

Second part, the compound after the results:

Ki [1]	Ki [2]	Avg. ER α pKi [1]	Avg. ER β pKi [2]	Ki ([2]; read-out: Avg. ER β pKi (converted))	Compound
1550 nM	–	–	–	–	CCc1nc2cc(O)ccc2c(Oc2cccc(/C=C/C(=O)O)c2)c1-c1ccccc1 [Example 10, 3-[(7-Hydroxy-2-ethyl-3-phenyl-4-quinolinyl)oxyphenyl]-2-propenoic acid]
–	–	8.01	7.76	–	4-[(7-Hydroxy-2-ethyl-3-phenyl-4-quinolinyl)oxyphenyl]-2-propeno-N-isopropylamide [Example 3]
3160 nM	–	–	–	1820 nM	CCc1nc2cc(O)ccc2c(Sc2ccc(/C=C/C(N)=O)cc2)c1-c1ccccc1 [Example 11, 4-[(7-Hydroxy-2-ethyl-3-phenyl-4-quinolinyl)thiophenyl]-2-propenoamide]
